# Test system: NLRP3 inflammasome in BMDMs
# Assay: NLRP3 inflammasome activation in LPS-primed BMDMs (ATP/Nigericin; ELISA, immunoblot)
# Assay type: cell-based, mouse
# Conditions: DP 2.5, 5, 10 μM, supernatant
# Description: Mouse bone marrow cells (isolated from the legs of mice) were cultured in DMEM supplemented with 20% FBS. BMDMs were generated by culturing mouse bone marrow cells in the presence of 20 ng/ml M-CSF-conditioned medium for 7 days. BMDMs were seeded in 6- or 48-well plates overnight in FBS-free DMEM. On day 2, after priming with ultrapure LPS (200 ng/ml) for 4 h, BMDMs (1 × 10^6 cells/ml) were further stimulated with ATP (4 mM) or nigericin (10 μM) for 45 min. Supernatants and cell lysates were collected for ELISA and immunoblot analyses.
# The cytokines mouse IL-1β and TNF-α in supernatants from serum, cell culture, and tissue culture were assayed by ELISA kits (R&D Systems, Minneapolis, MN, USA) according to the manufacturer’s instructions.
# Cells were lysed in NP-40 buffer containing a protease inhibitor cocktail (Roche, 11836153001) and a phosphatase inhibitor cocktail (Sigma-Aldrich, P5726). Protein concentrations were quantified using a BCA Protein Assay Kit (Beyotime, 5000T P0011). Equal amounts of protein were separated by SDS-PAGE and transferred onto nitrocellulose membranes. The membranes were then incubated with antibodies against CMPK2, NLRP3, ASC, pro-caspase-1, pro-IL-1β, GAPDH, caspase-1 and IL-1β, followed by incubation with the appropriate secondary HRP-conjugated antibodies and development with ECL.
smiles,measurement,setting,value
"COc1c2ccc(-c3ccccc3)oc-2cc(=O)c1C [compound 73, Dracohodin perochlorate]",lysis of p20 (caspase-1),12 h before or 1 h after LPS,inhibited
same,secretion of p17 (IL-1β),12 h before or 1 h after LPS,inhibited
same,production of TNF-α,,had no effect

# Reference: publication PMC10587737, “Dracorhodin targeting CMPK2 attenuates inflammation: A novel approach to sepsis therapy” (Clinical and Translational Medicine, 2023)
